Data reported in US8623907B2, “Herbicides” (Syngenta Participations, AG, priority 2008, dated 2014).

Experiments:
Assay type in all cases: in vivo
Avena fatua (AVEFA) [1] = experiment: Test Example 1, pre-emergence herbicidal activity; details: Rate 500 g/ha; evaluated 20 days later; 100=total damage to plant, 0=no damage to plant
Protocol: (§1) Monocotyledonous and dicotyledonous test plants were sown in standard soil in pots. After cultivation for one day (pre-emergence) or after 10 days cultivation (post-emergence) under controlled conditions in a glasshouse, the plants were sprayed with an aqueous spray solution derived from the formulation of the technical active ingredient in 0.6 ml acetone and 45 ml formulation solution containing 10.6% Emulsogen EL (Registry number 61791-12-6), 42.2% N-methylpyrrolidone, 42.2% dipropylene glycol monomethyl ether (Registry number 34590-94-8) and 0.2% X-77 (Registry number 11097-66-8). The test plants were then grown in a greenhouse under optimum conditions until, 15 days later for post-emergence and 20 days for pre-emergence, the test was evaluated (100=total damage to plant; 0=no damage to plant). Alopecurus myosuroides (ALOMY), Avena fatua (AVEFA), Lolium perenne (LOLPE), Setaria faberi (SETFA), Digitaria sanguinalis (DIGSA), Echinochloa crus-galli (ECHCG)

[2] = tested on: Digitaria sanguinalis (DIGSA); experiment: Test Example 1, pre-emergence herbicidal activity; details: Rate 500 g/ha; evaluated 20 days later; 100=total damage to plant, 0=no damage to plant
Protocol: as §1

[3] = tested on: Alopecurus myosuroides (ALOMY); experiment: Test Example 1, pre-emergence herbicidal activity; details: Rate 500 g/ha; evaluated 20 days later; 100=total damage to plant, 0=no damage to plant
Protocol: as §1

Setaria faberi (SETFA) [4] = experiment: Test Example 1, pre-emergence herbicidal activity; details: Rate 500 g/ha; evaluated 20 days later; 100=total damage to plant, 0=no damage to plant
Protocol: as §1

[5] = tested on: Echinochloa crus-galli (ECHCG); experiment: Test Example 1, pre-emergence herbicidal activity; details: Rate 500 g/ha; evaluated 20 days later; 100=total damage to plant, 0=no damage to plant
Protocol: as §1

Lolium perenne (LOLPE) [6] = experiment: Test Example 1, pre-emergence herbicidal activity; details: Rate 500 g/ha; evaluated 20 days later; 100=total damage to plant, 0=no damage to plant
Protocol: as §1

Avena fatua (AVEFA) [7] = experiment: Test Example 1, post-emergence herbicidal activity; details: Rate 500 g/ha; evaluated 15 days later; 100=total damage to plant, 0=no damage to plant
Protocol: as §1

[8] = tested on: Digitaria sanguinalis (DIGSA); experiment: Test Example 1, post-emergence herbicidal activity; details: Rate 500 g/ha; evaluated 15 days later; 100=total damage to plant, 0=no damage to plant
Protocol: as §1

[9] = tested on: Alopecurus myosuroides (ALOMY); experiment: Test Example 1, post-emergence herbicidal activity; details: Rate 500 g/ha; evaluated 15 days later; 100=total damage to plant, 0=no damage to plant
Protocol: as §1

Setaria faberi (SETFA) [10] = experiment: Test Example 1, post-emergence herbicidal activity; details: Rate 500 g/ha; evaluated 15 days later; 100=total damage to plant, 0=no damage to plant
Protocol: as §1

[11] = tested on: Echinochloa crus-galli (ECHCG); experiment: Test Example 1, post-emergence herbicidal activity; details: Rate 500 g/ha; evaluated 15 days later; 100=total damage to plant, 0=no damage to plant
Protocol: as §1

Lolium perenne (LOLPE) [12] = experiment: Test Example 1, post-emergence herbicidal activity; details: Rate 500 g/ha; evaluated 15 days later; 100=total damage to plant, 0=no damage to plant
Protocol: as §1

Avena fatua (AVEFA) [13] = experiment: Test Example B, pre-emergence herbicidal activity; details: Rate 250 g/ha; evaluated after 13 days; 100=total damage to plant, 0=no damage to plant
Protocol: (§2) Seeds of a variety of test species were sown in standard soil in pots. After cultivation for one day (pre-emergence) or after 8 days cultivation (post-emergence) under controlled conditions in a glasshouse (at 24/16° C., day/night; 14 hours light; 65% humidity), the plants were sprayed with an aqueous spray solution derived from the formulation of the technical active ingredient in acetone/water (50:50) solution containing 0.5% Tween 20 (polyoxyethelyene sorbitan monolaurate, CAS RN 9005-64-5). The test plants were then grown in a glasshouse under controlled conditions in a glasshouse (at 24/16° C., day/night; 14 hours light; 65% humidity) and watered twice daily. After 13 days for pre and post-emergence, the test was evaluated (100=total damage to plant; 0=no damage to plant). Alopecurus myosuroides (ALOMY), Avena fatua (AVEFA), Setaria faberi (SETFA), Echinochloa crus-galli (ECHCG), Solanum nigrum (SOLNI) and Amaranthus retroflexus (AMARE)

[14] = tested on: Amaranthus retroflexus (AMARE); experiment: Test Example B, pre-emergence herbicidal activity; details: Rate 250 g/ha; evaluated after 13 days; 100=total damage to plant, 0=no damage to plant
Protocol: as §2

[15] = tested on: Alopecurus myosuroides (ALOMY); experiment: Test Example B, pre-emergence herbicidal activity; details: Rate 250 g/ha; evaluated after 13 days; 100=total damage to plant, 0=no damage to plant
Protocol: as §2

Setaria faberi (SETFA) [16] = experiment: Test Example B, pre-emergence herbicidal activity; details: Rate 250 g/ha; evaluated after 13 days; 100=total damage to plant, 0=no damage to plant
Protocol: as §2

[17] = tested on: Echinochloa crus-galli (ECHCG); experiment: Test Example B, pre-emergence herbicidal activity; details: Rate 250 g/ha; evaluated after 13 days; 100=total damage to plant, 0=no damage to plant
Protocol: as §2

Solanum nigrum (SOLNI) [18] = experiment: Test Example B, pre-emergence herbicidal activity; details: Rate 250 g/ha; evaluated after 13 days; 100=total damage to plant, 0=no damage to plant
Protocol: as §2

Avena fatua (AVEFA) [19] = experiment: Test Example B, post-emergence herbicidal activity; details: Rate 250 g/ha; evaluated after 13 days; 100=total damage to plant, 0=no damage to plant
Protocol: as §2

[20] = tested on: Amaranthus retroflexus (AMARE); experiment: Test Example B, post-emergence herbicidal activity; details: Rate 250 g/ha; evaluated after 13 days; 100=total damage to plant, 0=no damage to plant
Protocol: as §2

[21] = tested on: Alopecurus myosuroides (ALOMY); experiment: Test Example B, post-emergence herbicidal activity; details: Rate 250 g/ha; evaluated after 13 days; 100=total damage to plant, 0=no damage to plant
Protocol: as §2

Setaria faberi (SETFA) [22] = experiment: Test Example B, post-emergence herbicidal activity; details: Rate 250 g/ha; evaluated after 13 days; 100=total damage to plant, 0=no damage to plant
Protocol: as §2

[23] = tested on: Echinochloa crus-galli (ECHCG); experiment: Test Example B, post-emergence herbicidal activity; details: Rate 250 g/ha; evaluated after 13 days; 100=total damage to plant, 0=no damage to plant
Protocol: as §2

Solanum nigrum (SOLNI) [24] = experiment: Test Example B, post-emergence herbicidal activity; details: Rate 250 g/ha; evaluated after 13 days; 100=total damage to plant, 0=no damage to plant
Protocol: as §2

In the case of `CCc1ccc(-c2ccc(Cl)cc2Cl)cc1C1([N+](=O)[O-])C(=O)C(C)(C)OC(C)(C)C1=O` [Compound A1, 4-(2′,4′-dichloro-4-ethylbiphen-3-yl)-2,2,6,6-tetramethyl-4-nitropyran-3,5-dione], the “Pre-Emergence Activity AVEFA (damage to plant)” value (from here on “Pre-Emergence Activity AVEFA”) (Avena fatua (AVEFA) [1]) is reported as 30, the “Pre-Emergence Activity DIGSA (damage to plant)” value [2] is reported as 70 and the “Pre-Emergence Activity ALOMY (damage to plant)” value (from here on “Pre-Emergence Activity ALOMY”) [3] is reported as 20. For the same compound, the “Pre-Emergence Activity SETFA (damage to plant)” value (from here on “Pre-Emergence Activity SETFA”) (Setaria faberi (SETFA) [4]) was 0, the “Pre-Emergence Activity ECHCG (damage to plant)” value (from here on “Pre-Emergence Activity ECHCG”) [5] was 20 and the “Pre-Emergence Activity LOLPE (damage to plant)” value (Lolium perenne (LOLPE) [6]) was 30. The “Post-Emergence Activity AVEFA (damage to plant)” value (from here on “Post-Emergence Activity AVEFA”) (Avena fatua (AVEFA) [7]) was 70, the “Post-Emergence Activity DIGSA (damage to plant)” value [8] was 100 and the “Post-Emergence Activity ALOMY (damage to plant)” value (shortened to “Post-Emergence Activity ALOMY”) [9] was 60. The “Post-Emergence Activity SETFA (damage to plant)” value (“Post-Emergence Activity SETFA” below) (Setaria faberi (SETFA) [10]) was 100, the “Post-Emergence Activity ECHCG (damage to plant)” value (from here on “Post-Emergence Activity ECHCG”) [11] was 100 and the “Post-Emergence Activity LOLPE (damage to plant)” value (Lolium perenne (LOLPE) [12]) was 100.
In the case of `CCc1ccc(-c2ccc(Cl)cc2Cl)cc1C1(Cl)C(=O)C(C)(C)OC(C)(C)C1=O` [Compound A2, 4-chloro-4-(2′,4′-dichloro-4-ethylbiphen-3-yl)-2,2,6,6-tetramethylpyran-3,5-dione], the “Pre-Emergence Activity AVEFA” value (Avena fatua (AVEFA) [1]) is reported as 50, the “Pre-Emergence Activity DIGSA (damage to plant)” value [2] is reported as 90 and the “Pre-Emergence Activity ALOMY” value [3] is reported as 0. For the same compound, the “Pre-Emergence Activity SETFA” value (Setaria faberi (SETFA) [4]) was 90, the “Pre-Emergence Activity ECHCG” value [5] was 90 and the “Pre-Emergence Activity LOLPE (damage to plant)” value (Lolium perenne (LOLPE) [6]) was 70. The “Post-Emergence Activity AVEFA” value (Avena fatua (AVEFA) [7]) was 80, the “Post-Emergence Activity DIGSA (damage to plant)” value [8] was 100 and the “Post-Emergence Activity ALOMY” value [9] was 60. For the same compound, the “Post-Emergence Activity SETFA” value (Setaria faberi (SETFA) [10]) was 100, the “Post-Emergence Activity ECHCG” value [11] was 100 and the “Post-Emergence Activity LOLPE (damage to plant)” value (Lolium perenne (LOLPE) [12]) was 100.
`Cc1ccc(-c2ccc(Cl)cc2)cc1C1(Cl)C(=O)COC(C)(C)C1=O` (stereo not drawn) [Compound A3, 4-chloro-4-(4′-chloro-4-methylbiphenyl-3-yl)-2,2-dimethylpyran-3,5-dione] was tested, and the “Pre-Emergence Activity AVEFA” value (Avena fatua (AVEFA) [13]) was 0, the “Pre-Emergence Activity AMARE (damage to plant)” value [14] was 0 and the “Pre-Emergence Activity ALOMY” value [15] was 0. For the same compound, the “Pre-Emergence Activity SETFA” value (Setaria faberi (SETFA) [16]) was 0, the “Pre-Emergence Activity ECHCG” value [17] was 50 and the “Pre-Emergence Activity SOLNI (damage to plant)” value (Solanum nigrum (SOLNI) [18]) was 0. The “Post-Emergence Activity AVEFA” value (Avena fatua (AVEFA) [19]) was 0, the “Post-Emergence Activity AMARE (damage to plant)” value [20] was 0 and the “Post-Emergence Activity ALOMY” value [21] was 0. For the same compound, the “Post-Emergence Activity SETFA” value (Setaria faberi (SETFA) [22]) was 80, the “Post-Emergence Activity ECHCG” value [23] was 80 and the “Post-Emergence Activity SOLNI (damage to plant)” value (Solanum nigrum (SOLNI) [24]) was 0.
`Cc1ccc(-c2ccc(Cl)cc2)cc1C1(Cl)C(=O)C(C)(C)OC(C)(C)C1=O` [Compound A4, 4-Chloro-4-(4′-chloro-4-methylbiphenyl-3-yl)-2,2,6,6-tetramethyl-pyran-3,5-dione] was tested, and the “Pre-Emergence Activity AVEFA” value (Avena fatua (AVEFA) [13]) was 70, the “Pre-Emergence Activity AMARE (damage to plant)” value [14] was 0 and the “Pre-Emergence Activity ALOMY” value [15] was 30. For the same compound, the “Pre-Emergence Activity SETFA” value (Setaria faberi (SETFA) [16]) was 100, the “Pre-Emergence Activity ECHCG” value [17] was 100 and the “Pre-Emergence Activity SOLNI (damage to plant)” value (Solanum nigrum (SOLNI) [18]) was 0. The “Post-Emergence Activity AVEFA” value (Avena fatua (AVEFA) [19]) was 90, the “Post-Emergence Activity AMARE (damage to plant)” value [20] was 0 and the “Post-Emergence Activity ALOMY” value [21] was 100. For the same compound, the “Post-Emergence Activity SETFA” value (Setaria faberi (SETFA) [22]) was 100, the “Post-Emergence Activity ECHCG” value [23] was 100 and the “Post-Emergence Activity SOLNI (damage to plant)” value (Solanum nigrum (SOLNI) [24]) was 0.
